Key:
wild-type CysLT1R = target: T1, wild-type CysLT1R (Homo sapiens, UniProt Q9Y271); assay: IP1 production assay, antagonist mode, co-stimulation with EC80 LTD4; assay type: cell-based; conditions: for inhibition at 30 µM: HEK293, compound 30 µM, LTD4 at EC80, HEK293, wild-type CysLT1R, read-out: inhibition of LTD4-induced IP1 production, single-concentration screen; for Emax: HEK293, read-out: CysLT1R (LTD4) % Max Inhibition ± SEM
T1 construct: expressed in transfected cells; host or cells: HEK293 (ATCC CRL-1573), transient transfection with Lipofectamine 3000
T1 sequence (Q9Y271 1-337): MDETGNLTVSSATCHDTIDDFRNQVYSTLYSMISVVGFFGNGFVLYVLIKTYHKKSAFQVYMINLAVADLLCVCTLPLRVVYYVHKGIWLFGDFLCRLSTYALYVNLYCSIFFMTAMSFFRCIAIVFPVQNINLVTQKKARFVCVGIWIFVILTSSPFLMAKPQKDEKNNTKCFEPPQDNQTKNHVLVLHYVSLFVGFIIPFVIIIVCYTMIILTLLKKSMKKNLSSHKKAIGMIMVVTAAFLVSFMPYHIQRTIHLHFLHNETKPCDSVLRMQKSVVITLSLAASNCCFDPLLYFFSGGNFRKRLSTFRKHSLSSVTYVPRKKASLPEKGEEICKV
Method: (§1) For this assay, we used the Cisbio IP-One kit as previously described. […] At 48 h post-transfection, the media was removed and the cells were washed with fresh Hank’s Balanced Salt Solution (HBSS). […] After compound stimulation, the cells were incubated for 1 h at 37 °C and stimulated with IP1-D2 and Ab-Crypt reagents in Lysis Buffer. The cells were then incubated at room temperature for an additional hour. […] Normalized data were plotted using either the three-parameter or four-parameter EC50/IC50 fits of GraphPad Prism 8 (San Diego). […] Data represent the means ± SEM of at least three independent experiments performed in quadruplicate.

wild-type CysLT2R = target: T2, wild-type CysLT2R (Homo sapiens, UniProt Q9NS75); assay: as above; assay type: cell-based; conditions: for inhibition at 30 µM: HEK293, compound 30 µM, LTD4 at EC80, HEK293, wild-type CysLT2R, read-out: inhibition of LTD4-induced IP1 production, single-concentration screen; for Emax: HEK293, read-out: CysLT2R (LTD4) % Max Inhibition ± SEM
T2 construct: expressed in transfected cells; host or cells: HEK293 (ATCC CRL-1573), transient transfection with Lipofectamine 3000
T2 sequence (Q9NS75 1-346): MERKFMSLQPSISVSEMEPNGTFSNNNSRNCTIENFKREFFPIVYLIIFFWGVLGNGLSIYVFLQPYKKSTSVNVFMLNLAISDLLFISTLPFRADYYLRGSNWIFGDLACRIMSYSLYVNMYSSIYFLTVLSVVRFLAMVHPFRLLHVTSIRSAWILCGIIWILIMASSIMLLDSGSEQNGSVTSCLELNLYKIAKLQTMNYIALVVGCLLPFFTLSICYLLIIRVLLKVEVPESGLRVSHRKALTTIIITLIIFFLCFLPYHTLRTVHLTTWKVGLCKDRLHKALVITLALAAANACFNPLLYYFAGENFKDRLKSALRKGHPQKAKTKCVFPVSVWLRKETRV
Method: as §1

Compound	remaining activity at 30 µM (wild-type CysLT1R) [%]	remaining activity at 30 µM (wild-type CysLT2R) [%]	inhibition at 30 µM (wild-type CysLT2R) [%]	Emax (wild-type CysLT2R) [%]	inhibition at 30 µM (wild-type CysLT1R) [%]	Emax (wild-type CysLT1R) [%]
CC(Sc1n[nH]c(=O)n1C1CC1)C(=O)c1c[nH]c2ccccc12 (stereo not drawn) [BRI-12342]	71.7	81.2	–	–	–	–
O=C(O)CNC(=O)c1ccc(NS(=O)(=O)c2csc(-c3ccc(Cl)cc3)n2)cc1 [BRI-12433]	76.2	62.7	–	–	–	–
CN(CC(=O)Nc1ccc2[nH]ncc2c1)C1=NS(=O)(=O)c2ccccc21 [BRI-12331]	84.3	92.8	–	–	–	–
CC(CNS(=O)(=O)c1csc(-c2ccc(F)cc2)n1)C(=O)O (stereo not drawn) [BRI-12464]	103	60.8	–	–	–	–
Cn1nc(C2CC2)nc1CC(=O)Nc1ccc(N2CCNC2=O)cc1 [BRI-12402]	66.8	40.2	≥ 50	8 ± 4	–	–
CN(CC(=O)O)C(=O)c1ccc(-c2ccc(NC(=O)C(C)(C)C)nc2)o1 [BRI-12450]	57.6	41.1	≥ 50	24 ± 8	≥ 50	44 ± 25
O=C(O)CCN(CC1CCCO1)C(=O)c1cc(-c2ccccc2Cl)[nH]n1 (stereo not drawn) [BRI-12320]	81.4	90.5	–	–	–	–
O=C(Nc1ccccc1C(=O)N1CCn2ncnc2C1)c1ccc(Cl)cc1 [BRI-12419]	85.7	48.1	–	–	–	–
CC1(c2ccc(C(=O)Nc3nc(-c4ccccc4)cs3)cc2)NC(=O)NC1=O (stereo not drawn) [BRI-12328]	21	38.1	≥ 50	5 ± 7	≥ 50	33 ± 8
Cc1ccccc1Nc1nc2sc(C(=O)NCCc3nnc4n3CCNC4=O)cc2s1 [BRI-12435]	54.5	77.1	–	–	≥ 50	46 ± 20
CN(CCOc1ccc(OCc2ccccc2)cc1)C(=O)c1cc(=O)[nH]c2ccc(F)cc12 [BRI-12404]	83.8	67.3	–	–	–	–
CC1(C(=O)Nc2ccc(C(=O)NCCC(=O)O)cc2)CCOCC1 [BRI-12476]	90.1	66.4	–	–	–	–
O=C(O)CCNC(=O)c1nccnc1C(=O)Nc1ccc(Cl)cc1 [BRI-12465]	84.7	59.9	–	–	–	–
Cc1cc(O)c(C(=O)O)cc1S(=O)(=O)Nc1ccc(N2CCCC2)c(F)c1 [BRI-12334]	47.3	57.2	≥ 50	21 ± 8	≥ 50	46 ± 15
NC(=O)NC(=O)COC(=O)c1ccccc1Nc1cccc(C(F)(F)F)c1 [BRI-12349]	80	70.5	–	–	–	–
Cc1nonc1CC(=O)NC1(CNC(=O)c2cc3occc3s2)CCC1 [BRI-12463]	81.2	57.8	–	–	–	–
O=C(c1cc(C(F)(F)F)n[nH]1)N1CCC2(C1)CN(C(=O)[C@@H]1C[C@H]1c1cccnc1)C2 [BRI-12459]	77.6	69.1	–	–	–	–

Compound	remaining activity at 30 µM (wild-type CysLT1R) [%]	remaining activity at 30 µM (wild-type CysLT2R) [%]	inhibition at 30 µM (wild-type CysLT2R) [%]	Emax (wild-type CysLT2R) [%]	inhibition at 30 µM (wild-type CysLT1R) [%]	Emax (wild-type CysLT1R) [%]
NC(=O)CN1CCN(C(=O)c2ccccc2NC(=O)c2ccc(Cl)cc2)CC1=O [BRI-12454]	77.4	48.4	≥ 50	6 ± 10	–	–
O=C(O)CNC(=O)c1ccc(S(=O)(=O)Nc2ccc3sncc3c2)cc1 [BRI-12413]	80	49.5	≥ 50	5 ± 6	–	–
COc1ccccc1OCc1ccc(C(=O)N[C@@H](CC(=O)O)c2ccc(Cl)cc2)o1 [BRI-12443]	84.5	82.3	–	–	–	–
O=C(O)CCC1CCCCN1C(=O)C1CCc2ncncc2C1 (stereo not drawn) [BRI-12302]	87.4	70	–	–	–	–
O=C(O)CN(CC(=O)O)S(=O)(=O)Cc1cc(Cl)cc(Cl)c1 [BRI-12456]	96.3	65.2	–	–	–	–
COC[C@@H](C)n1c(-c2ccc3[nH]c(=O)oc3c2)csc1=Nc1ccc(C(N)=O)cc1 [BRI-12477]	74.9	60.6	–	–	–	–
Cc1ccc(-c2nnc(SCC(=O)NC(N)=O)nc2-c2ccc(C)cc2)cc1 [BRI-12360]	74.3	90.5	–	–	–	–
O=C(c1ccc2nnnn2c1)N1CC=C(c2c[nH]c3ccccc23)CC1 [BRI-12332]	96.7	91.2	–	–	–	–
CN(CCCc1cc(-c2ccc(F)cc2)n[nH]1)S(=O)(=O)c1[nH]ncc1C(=O)O [BRI-12431]	90.9	63.2	–	–	–	–
COc1ccc(NC(=O)CN(C)C(=O)c2ccccc2-n2cnnn2)cc1 [BRI-12357]	77	65.7	–	–	–	–
NC(=O)c1ccc(NC(=O)CCCCC2SCC3NC(=O)NC32)cc1 (stereo not drawn) [BRI-12301]	91.5	88.1	–	–	–	–
NS(=O)(=O)c1cc(C(=O)NCCc2ccc(OCC(=O)O)cc2)cs1 [BRI-12426]	72.6	41.8	≥ 50	5 ± 9	–	–
CCOc1ccc(NC(=O)c2cccn3nnnc23)c(C(N)=O)c1 [BRI-12469]	80.7	52.8	–	–	–	–
O=C(O)CNS(=O)(=O)c1ccc(-c2ccc3c(c2)CCC3)s1 [BRI-12451]	65.3	61.2	–	–	–	–
CC(=O)Nc1ccccc1OS(=O)(=O)c1cccc2cc(C)cnc12 [BRI-12318]	74.1	88.2	–	–	–	–
O=C(O)C(Cc1c[nH]c2ncccc12)NS(=O)(=O)c1csc(-c2ccc(F)cc2)n1 (stereo not drawn) [BRI-12439]	88.3	72.4	–	–	–	–

The remaining lines, values ahead:

remaining activity at 30 µM (wild-type CysLT1R) [%]	remaining activity at 30 µM (wild-type CysLT2R) [%]	inhibition at 30 µM (wild-type CysLT2R) [%]	Emax (wild-type CysLT2R) [%]	inhibition at 30 µM (wild-type CysLT1R) [%]	Emax (wild-type CysLT1R) [%]	Compound
89.5	107	–	–	–	–	COc1ccc(C2=NN(C(=O)CCC(=O)O)C(c3cccs3)C2)cc1 (stereo not drawn) [BRI-12348]
78.7	42.4	≥ 50	15 ± 13	–	–	O=C(O)COc1cccc(CNC(=O)c2cnc(-c3ncccn3)s2)c1 [BRI-12427]
87.8	87.4	–	–	–	–	O=C(O)[C@@H]1CC[C@H](C(=O)Nc2cccc(-c3nc4ccccc4[nH]3)c2)C1 [BRI-12309]
68.3	74.6	–	–	–	–	O=C(O)CCc1cccc(NC(=O)c2ccc(-c3cccs3)[nH]c2=O)c1 [BRI-12475]
85.5	52.9	–	–	–	–	NC(=O)Nc1ccc(C(=O)NCc2c(C(=O)O)oc3ccccc23)cc1 [BRI-12447]
73.3	62.3	–	–	–	–	O=C(NCC(O)c1cccc(OCc2ccccc2)c1)c1cc(=O)[nH]c2ccc(F)cc12 (stereo not drawn) [BRI-12409]
90.3	59.5	–	–	–	–	Cc1ccc(C(=O)Nc2ccc(C(=O)NCC(=O)O)cc2)c(O)c1 [BRI-12428]
95.2	75	–	–	–	–	O=C(O)CNC(=O)c1ccc(NC(=O)c2cnc3ccccc3c2)cc1 [BRI-12440]
86.4	89.2	–	–	–	–	O=C(O)CNC(=O)c1ccc(NC(=O)c2cc3ccccn3c2)cc1 [BRI-12317]
74.5	51.7	–	–	–	–	O=C(O)CNC(=O)c1ccc(NC(=O)CCn2cccc2)cc1 [BRI-12442]
85.1	56.8	–	–	–	–	O=C(CCCc1ccc2[nH]c(=O)[nH]c2c1)Nc1ccc(C(=O)Nc2cccnc2)cc1 [BRI-12415]
81.8	84.9	–	–	–	–	O=C(Cc1cccc(OCc2cccnc2)c1)Nc1cccc(-n2ccc(C(=O)O)n2)c1 [BRI-12414]
76.4	78.4	–	–	–	–	CC(=O)c1ccc(OCC(=O)NC(CC(=O)O)c2cccs2)cc1 (stereo not drawn) [BRI-12319]
83.4	91.3	–	–	–	–	O=C(O)CC(NC(=O)c1ccc2[nH]ccc2c1)c1ccccc1 (stereo not drawn) [BRI-12361]
88.6	110	–	–	–	–	O=C(O)CNC(=O)Cc1ccc(NC(=O)c2n[nH]c3ccccc23)cc1 [BRI-12313]
